{"source": "patent US20050004011A1", "about": "“Compositions and methods for treating bacterial infections with protein-dalbavancin complexes” (priority 2002, published 2005)", "key": {"[1]": {"experiment": "Pharmacokinetics and renal excretion in healthy subjects", "format": "in vivo, human", "description": "Blood samples were drawn into heparinized tubes and centrifuged. Plasma was separated and stored frozen at −20° C. until time of assay. Plasma and urine samples were assayed for dalbavancin using validated LC/MS/MS methods. […] The peak concentration (Cmax) values were obtained directly from the observed data. The area under the plasma concentration-time curve (AUC) was calculated using the linear trapezoidal rule. Clearance (CL) was computed as dose/AUC. The elimination half life (t1/2) was estimated by linear regression of the log-linear portion of the log concentration versus time curve. Estimates of the volume of distribution (Vz) was calculated using the regression parameters, while the volume of distribution at steady state (Vss) was calculated from the area under the first moment curve (AUMC) multiplied by the dose and divided by AUC. The cumulative amount of dalbavancin excreted in urine was determined as the integrand of the urine excretion rate (AURC). CLR, or renal clearance, was calculated as the ratio: CLR=AURC/AUC."}, "[2]": {"test_system": "Gram-positive pathogen identified at baseline", "experiment": "Phase II SSTI trial: microbiological response", "format": "in vivo, human", "conditions": "for Success rate by pathogen: MITT at FU; for Microbiologic success rate: MITT population; for Eradication/presumed eradication rate, all organisms / S. aureus eradication rate: microbiologically-evaluable population at FU", "description": "(§1) This randomized, controlled study evaluated the safety and efficacy of two dose regimens of dalbavancin.\n(§2) There were 62 patients randomized into the study; all received at least one dose of study medication. Four study populations were evaluated for safety and efficacy and were defined as follows: The intent-to-treat (ITT) population included all patients who received at least one dose of study drug (all randomized study subjects).\nMicrobiological outcome, a secondary efficacy variable, was assessed in the subpopulation of patients who had microbiologically documented SSTI (i.e., at least one identified baseline pathogen). A microbiologic response was assessed for each Gram-positive pathogen identified at baseline (i.e., eradication, presumed eradication, persistence, presumed persistence). For patients for whom follow-up cultures were not performed, the microbiologic responses for baseline pathogens were presumed on the basis of the clinical response. Microbiologic response by patient at the EOT and FU visits was graded as success (i.e., all Gram-positive organisms eradicated or presumed eradicated) or failure (i.e., at least one Gram-positive organism persisted or presumed to have persisted, multiple pathogens with partial eradication). At both the EOT and FU visits, colonization and superinfection were assessed. At the FU visit, a patient's bacteriological response could also include recurrence."}, "[3]": {"experiment": "Rat mass balance study", "format": "in vivo, Sprague-Dawley rats", "description": "Mass balance studies were conducted to determine the excretion pattern of dalbavancin following a single intravenous (IV) infusion of dalbavancin in male rats.\nWater and methanol cage washes were also collected."}, "[4]": {"test_system": "Streptococcus pyogenes", "experiment": "Dalbavancin MIC of baseline isolates", "format": "cell-based"}, "[5]": {"experiment": "Rat quantitative tissue distribution (QTD) study", "format": "in vivo, Sprague-Dawley rats", "description": "Quantitative tissue distribution studies were conducted to assess the tissue distribution of dalbavancin following a single IV infusion of dalbavancin to male rats.\nAll samples were analyzed by LSC."}, "[6]": {"target": "human α-glycoprotein", "experiment": "Protein binding by isothermal titration microcalorimetry", "conditions": "for apparent binding affinity Ka: pH 7.4; for Calculated percent binding: α-glycoprotein […]10^−5M", "experimental": "(§3) Integrated heat effects, after correction for heats of dilution, were analyzed by non-linear regression using a simple single-site binding model with the standard Microcal ORIGIN software package. Raw data (μcal/sec) for each injection were integrated to give the total heat effect per addition, then divided by amount of injectant to give kcal/mole of injectant. The same integration was applied for control dilution effects, and this was subtracted from the actual titration data. This provided a differential of the binding curve in which the extent of binding is proportional to the total heat liberated (or absorbed). This was then analyzed by non-linear regression methods in terms of various standard binding models."}, "[7]": {"test_system": "skin and soft tissue infections (SSTI)", "experiment": "Phase II trial in deep skin and soft tissue infections: clinical response", "format": "in vivo, human", "description": "as §1, §2\nThe effectiveness of the three treatment regimens was determined by assessing the patients' clinical response and the documented or presumed microbiological responses. The primary efficacy endpoint was clinical response at the follow-up visit for the clinically evaluable population. Clinical response, for both EOT and FU visits, was categorized as success (cure or improvement) or failure (including indeterminate results). Patients classified as successes must not have received additional systemic antibacterial treatment for their infection. Failure was defined as persistence of one or more local or systemic signs and symptoms of SSTI such that treatment with new or additional systemic antibacterial agents was required for the SSTI."}, "[8]": {"test_system": "Group B streptococcus", "experiment": "Dalbavancin MIC of baseline isolates", "format": "cell-based"}, "[9]": {"experiment": "Phase II SSTI trial: dalbavancin plasma concentrations", "format": "in vivo, human", "conditions": "for Mean dalbavancin plasma concentration: two-dose regimen"}, "[10]": {"experiment": "Stability of dalbavancin in plasma", "format": "in vitro ADME, human", "experimental": "A quality control standard of 1.5 μg/ml was prepared by spiking human plasma with an appropriate volume of a 50 μg/ml solution."}, "[11]": {"test_system": "S. aureus", "experiment": "Dalbavancin MIC of baseline isolates", "format": "cell-based", "conditions": "All S. aureus"}, "[12]": {"test_system": "Miscellaneous Streptococcus and nontypeable strains", "experiment": "Dalbavancin MIC of baseline isolates", "format": "cell-based"}, "[13]": {"experiment": "Safety assessments in healthy subjects", "format": "in vivo, human", "conditions": "single 1000 mg IV", "experimental": "Adverse events were recorded and assessed for severity and relationship to study drug. Laboratory data (chemistry panel, CBC with differential, urinalysis) were collected and assessed for changes from baseline and out-of-range values. ECG, physical examination, and vital signs were obtained, and changes from baseline were assessed."}, "[14]": {"target": "human albumin (Homo sapiens, UniProt P02768)", "sequence (P02768 25-609)": "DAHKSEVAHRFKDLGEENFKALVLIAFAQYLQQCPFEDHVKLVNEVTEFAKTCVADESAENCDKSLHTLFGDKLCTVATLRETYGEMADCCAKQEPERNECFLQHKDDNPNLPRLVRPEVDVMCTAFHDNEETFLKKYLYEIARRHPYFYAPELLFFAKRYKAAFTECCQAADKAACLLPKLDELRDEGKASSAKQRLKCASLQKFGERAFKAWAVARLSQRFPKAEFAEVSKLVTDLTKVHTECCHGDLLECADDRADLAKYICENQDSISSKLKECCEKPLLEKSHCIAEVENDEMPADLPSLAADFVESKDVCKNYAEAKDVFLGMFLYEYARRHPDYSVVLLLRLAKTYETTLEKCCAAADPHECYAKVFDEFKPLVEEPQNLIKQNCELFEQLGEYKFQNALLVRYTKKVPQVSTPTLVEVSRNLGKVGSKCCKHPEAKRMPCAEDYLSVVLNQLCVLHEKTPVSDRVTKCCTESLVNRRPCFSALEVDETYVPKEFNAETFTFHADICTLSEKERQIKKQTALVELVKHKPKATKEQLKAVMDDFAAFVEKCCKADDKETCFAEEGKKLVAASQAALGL", "experiment": "Protein binding by isothermal titration microcalorimetry", "experimental": "as §3"}, "[15]": {"test_system": "Gram-positive isolates, including MRSA", "experiment": "MIC against Gram-positive isolates / SSTI pathogens", "format": "cell-based", "conditions": "FU assessment"}, "[16]": {"conditions": "MITT isolates of standard of care group"}, "[17]": {"conditions": "MITT isolates of two-dose group"}, "[18]": {"conditions": "MITT isolates of single-dose group"}}}
{"smiles": "CN[C@H]1C(=O)N[C@@H]2Cc3ccc(cc3)Oc3cc4cc(c3O[C@@H]3O[C@H](C(=O)O)[C@@H](O)[C@H](O)[C@H]3NC(=O)CCCCCCCCC(C)C)Oc3ccc(cc3Cl)[C@@H](O)[C@@H]3NC(=O)[C@H](NC(=O)[C@@H]4NC(=O)[C@@H](NC2=O)c2cc(cc(O)c2Cl)Oc2cc1ccc2O)c1ccc(O)c(c1)-c1c(O[C@H]2O[C@H](CO)[C@@H](O)[C@H](O)[C@@H]2O)cc(O)cc1[C@@H](C(=O)NCCCN(C)C)NC3=O", "note": "[Dalbavancin]", "values": [{"measurement": "peak concentration in man", "setting": "[1]; human, in vivo", "result": "~165", "unit": "µM"}, {"measurement": "CLR", "setting": "[1]; single 1000 mg IV, mean", "result": 0.018, "unit": "L/h"}, {"measurement": "VZ", "setting": "[1]; single 1000 mg IV, mean", "result": 16.0, "unit": "L"}, {"measurement": "plasma concentration maintained for at least seven days", "setting": "[1]; single intravenous infusion of 1000 mg", "result": "above 45 mg/l"}, {"measurement": "Success rate by pathogen", "setting": "[2]; All S. aureus, single-dose (1100 mg)", "result": "5/13 (38%)"}, {"measurement": "Success rate by pathogen", "setting": "[2]; All S. aureus, two-dose (1000/500 mg)", "result": "9/11 (82%)"}, {"measurement": "Microbiologic success rate", "setting": "[2]; EOT, single-dose (1100 mg)", "result": "5/14 (35.7) %"}, {"measurement": "Microbiologic success rate", "setting": "[2]; EOT, two-dose (1000/500 mg)", "result": "10/13 (76.9) %"}, {"measurement": "Microbiologic success rate", "setting": "[2]; FU, single-dose (1100 mg)", "result": "3/14 (21.4) %"}, {"measurement": "Microbiologic success rate", "setting": "[2]; FU, two-dose (1000/500 mg)", "result": "9/13 (69.2) %"}, {"measurement": "Success rate by pathogen", "setting": "[2]; Methicillin-sensitive S. aureus, single-dose (1100 mg)", "result": "2/7 (29%)"}, {"measurement": "Success rate by pathogen", "setting": "[2]; Methicillin-sensitive S. aureus, two-dose (1000/500 mg)", "result": "5/6 (83%)"}, {"measurement": "Success rate by pathogen", "setting": "[2]; Miscellaneous streptococcus species, single-dose (1100 mg)", "result": "2/3 (67%)"}, {"measurement": "Success rate by pathogen", "setting": "[2]; Miscellaneous streptococcus species, two-dose (1000/500 mg)", "result": "4/4 (100%)"}, {"measurement": "Success rate by pathogen", "setting": "[2]; Total organisms, single-dose (1100 mg)", "result": "7/16 (43.8%)"}, {"measurement": "Success rate by pathogen", "setting": "[2]; Total organisms, two-dose (1000/500 mg)", "result": "14/16 (87.5%)"}, {"measurement": "Eradication/presumed eradication rate, all organisms", "setting": "[2]; single-dose", "result": 58, "unit": "%"}, {"measurement": "S. aureus eradication rate", "setting": "[2]; single-dose", "result": 50, "unit": "%"}, {"measurement": "Eradication/presumed eradication rate, all organisms", "setting": "[2]; two-dose", "result": 92, "unit": "%"}, {"measurement": "S. aureus eradication rate", "setting": "[2]; two-dose", "result": 90, "unit": "%"}, {"measurement": "dose remaining in the carcass", "setting": "[3]; 70 days post dose", "result": 4.5, "unit": "%"}, {"measurement": "plasma t1/2", "setting": "[3]; rat", "result": "approximately 1 week"}, {"measurement": "share of excreted radioactivity eliminated in feces", "setting": "[3]; single IV 20 mg/kg, male rats", "result": "⅓"}, {"measurement": "share of excreted radioactivity eliminated in urine", "setting": "[3]; single IV 20 mg/kg, male rats", "result": "⅔"}, {"measurement": "administered radioactivity eliminated in urine and feces", "setting": "[3]; within the first week", "result": "Approximately half"}, {"measurement": "Dalbavancin MIC", "setting": "[4]; [16]", "result": "(0.016) mg/L"}, {"measurement": "Dalbavancin MIC", "setting": "[4]; [17]", "result": "(0.016) mg/L"}, {"measurement": "dose recovered in the bile", "setting": "[5]; bile duct cannulated rats, over 384 h after the dose", "result": "~11", "unit": "%"}, {"measurement": "Concentrations of radioactivity in the CNS", "setting": "[5]; healthy animal model", "result": "low but detectable"}, {"measurement": "time by which all tissues had quantifiable drug-derived radioactivity", "setting": "[5]; post-infusion, 20 mg/kg IV", "result": "≤ 12", "unit": "h"}, {"measurement": "accumulation in tissue, organ or blood cellular component", "setting": "[5]; rat, in vivo", "result": "did not accumulate"}, {"measurement": "skin concentrations of drug-derived radioactivity", "setting": "[5]; relative to plasma", "result": "as high as or higher than in plasma"}, {"measurement": "Blood to plasma ratio of drug-derived radioactivity", "setting": "[5]; relatively constant over time", "result": "< 1"}, {"measurement": "apparent binding affinity Ka", "setting": "[6]; 25° C.", "result": "1.84 (±0.36) ×10^5 M^−1"}, {"measurement": "apparent binding affinity Ka", "setting": "[6]; 37° C.", "result": "4.8 (±2.3) ×10^5 M^−1"}, {"measurement": "Calculated percent binding", "setting": "[6]; antibiotic 1 μM", "result": 73.0, "unit": "%"}, {"measurement": "Calculated percent binding", "setting": "[6]; antibiotic 500 μM", "result": 5.9, "unit": "%"}, {"measurement": "Clinical success rate", "setting": "[7]; MITT at FU, patients with MRSA, single-dose", "result": 50, "unit": "%"}, {"measurement": "Clinical success rate", "setting": "[7]; MITT at FU, patients with MRSA, two-dose", "result": 80, "unit": "%"}, {"measurement": "Clinical success rate", "setting": "[7]; subanalysis: deep or complicated SSTI at baseline, single-dose", "result": 58.3, "unit": "%"}, {"measurement": "Clinical success rate", "setting": "[7]; subanalysis: deep or complicated SSTI at baseline, two-dose", "result": 93.8, "unit": "%"}, {"measurement": "Dalbavancin MIC", "setting": "[8]; [16]", "result": "(0.016) mg/L"}, {"measurement": "Dalbavancin MIC", "setting": "[8]; [17]", "result": "(0.016) mg/L"}, {"measurement": "Mean dalbavancin plasma concentration (mean±SD)", "setting": "[9]; single-dose regimen, Study day 10", "result": "25.2 ± 4.8", "unit": "mg/L"}, {"measurement": "Mean dalbavancin plasma concentration", "setting": "[9]; Study day 8 (prior to the second dose)", "result": "30.4 ± 8.2", "unit": "mg/L"}, {"measurement": "Mean dalbavancin plasma concentration", "setting": "[9]; Study day 20", "result": "21.2 ± 10.0", "unit": "mg/L"}, {"measurement": "Mean dalbavancin plasma concentration", "setting": "[9]; Study day 34", "result": "9.0 ± 4.4", "unit": "mg/L"}, {"measurement": "Stability in processed plasma samples", "setting": "[10]; 24 hours at room temperature", "result": "stable"}, {"measurement": "Stability in human plasma, detectable concentration", "setting": "[10]; three cycles of freeze-thaw, 1.5 and 90 μg/ml", "result": "stable"}, {"measurement": "Dalbavancin MIC", "setting": "[11]; [18]", "result": "(0.12) mg/L"}, {"measurement": "Dalbavancin MIC range", "setting": "[11]; [16]", "result": "(0.016-0.25) mg/L"}, {"measurement": "Dalbavancin MIC", "setting": "[11]; [17]", "result": "(0.12) mg/L"}, {"measurement": "Dalbavancin MIC", "setting": "[12]; [18]", "result": "(0.016) mg/L"}, {"measurement": "Dalbavancin MIC", "setting": "[12]; [16]", "result": "(0.016) mg/L"}, {"measurement": "Dalbavancin MIC", "setting": "[12]; [17]", "result": "(0.016) mg/L"}, {"measurement": "Subject deaths or serious adverse events", "setting": "[13]", "result": "No subject deaths or serious adverse events"}, {"measurement": "Tolerability", "setting": "[13]", "result": "well-tolerated"}, {"measurement": "Volunteers reporting AEs possibly related to study medication", "setting": "[13]; six subjects", "result": "Three"}, {"measurement": "binding stoichiometry modeling (drug:protein)", "setting": "[14]", "result": "two dalbavancin molecules are bound to one molecule of protein"}, {"measurement": "Calculated percent binding", "setting": "[14]; antibiotic 500 μM, human serum albumin 6×10^−4 M", "result": 98.0, "unit": "%"}, {"measurement": "N (binding stoichiometry, protein to dalbavancin)", "setting": "[14]; in all cases (all proteins)", "result": "< 1"}, {"measurement": "Change in dalbavancin MIC of isolates that persisted", "setting": "[15]", "result": "no change"}]}
